Values joined by “and” are separate entries in the source; they are usually repeats but may differ in a detail not shown here. Identical values can stand only once. Like-named read-outs stand apart in the source and are kept apart here.
What was measured:
[1] = test system: Dent corn (34V52); assay: Example 14: Growth-promoting effect (dent corn); type: in vivo; conditions: for Increase/decrease of above-ground part / Increase/decrease of underground part: non-addition group = 100%; for Weight of above-ground part FW / Weight of underground part FW: 25° C., 14 days
Experimental: Dent corn (34V52) was sown on pots filled with seedling culture soil (manufactured by Katakura & Co-op Agri Corporation; Kumiai seedling culture soil for gardening Genkikun No. 1) (soil volume, 130 ml). After confirmation of the germination, drenching treatment was carried out with 5 ml each of dilutions of hesperidin prepared at final concentrations of 1 to 10 ppm (using water as the solvent). […]

[2] = test system: lettuce (Green Wave); assay: Example 9: High-temperature stress pot test (lettuce); type: in vivo; conditions: for Fresh weight of above-ground part, Increase rate / Fresh weight of underground part, Increase rate: non-addition group = 100.0; for Fresh weight of above-ground part, Average / Fresh weight of underground part, Average: greenhouse 35° C., 20 days
Experimental: Immediately after the sowing, drenching treatment was carried out with 5 ml/well of a dilution of hesperidin prepared at a final concentration of 100 to 1000 ppm (using water as the solvent). A non-addition group was similarly subjected to drenching treatment using distilled water. High-temperature treatment was carried out by cultivation for 20 days in a greenhouse where the average daytime temperature was 35° C., and then the fresh weight of the above-ground part and the fresh weight of the underground part were evaluated. For each group, 15 to 20 measurement results were obtained (N=15 to 20).

[3] = test system: Sphaerotheca cucurbitae; assay: Example 20: Control effect against cucumber powdery mildew; type: in vivo; conditions: 14 days
Experimental: […] cucumber (Hanjirofushinari, Takii & Co., Ltd.) in the two leaf stage, and foliar spraying of 15 ml each of dilutions of hesperidin prepared at final concentrations of 10 to 1000 ppm (using 0.01% Tween 20 solution as the solvent) was carried out. After air-drying, foliar spraying of cucumber powdery mildew spores (1×10^4 spores/ml, using 0.01% Tween 20 solution as the solvent) was carried out. After air-drying, cultivation was carried out in a greenhouse for 14 days, and then the control effect was evaluated.
Preventive value=100−(damage in the addition group/damage in the non-addition group)×100 (Equation 3)

[4] = test system: Cabbage (Okina); assay: Example 18: Growth-promoting effect (cabbage, seed dressing); type: in vivo; conditions: for Increase/decrease of above-ground part / Increase/decrease of underground part: non-addition group = 100%; for Weight of above-ground part FW / Weight of underground part FW: 25° C., 28 days
Experimental: For cabbage (Okina, Takii & Co., Ltd.), seed dressing was carried out by application, at 5% seed weight, of a dilution of hesperidin prepared at a final concentration of 1 to 100 ppm (using water as the solvent). The dressed cabbage seeds were sown on a cell tray filled with seedling culture soil (manufactured by Nihon Hiryo Co., Ltd.; “Naebijin N100”). […]

[5] = test system: Cabbage (Okina) seeds; assay: Example 6: High-temperature stress Petri dish test (cabbage seeds); type: in vivo; conditions: for Germination rate, Increase rate / Root length, Increase rate: non-addition group = 100.0; for Root length, Average: after high-temperature treatment; for Germination rate, Average: seeds 52° C. hot water 25 minutes, 23° C. 4 days
Experimental: Cabbage (Okina, Takii & Co., Ltd.) seeds were soaked in hot water at 52° C. for 25 minutes to perform high-temperature treatment. […] A group similarly soaked in distilled water was provided as a non-addition group. After the soaking treatment, the seeds were dried in air, and then 20 seeds were sown on each of shallow Petri dishes in which qualitative filter paper was placed. To the filter paper in each Petri dish, 3 mL of distilled water was uniformly added dropwise. […] For each group, three measurement results were obtained for the germination rate (N=3), and 15 measurement results were obtained for the root length (N=15).

[6] = test system: lettuce (Green Wave); assay: Example 16: Growth-promoting effect (lettuce, drenching treatment); type: in vivo; conditions: for Increase/decrease of above-ground part / Increase/decrease of underground part: non-addition group = 100%; for Weight of above-ground part FW / Weight of underground part FW: 25° C., 14 days
Experimental: Lettuce (Green Wave) was sown on a cell tray filled with seedling culture soil (manufactured by Nihon Hiryo Co., Ltd.; “Naebijin N100”). After the two leaf stage, the lettuce was transplanted to each pot (soil volume, 100 ml). […]

[7] = test system: lettuce (Green Wave); assay: Example 17: Growth-promoting effect (lettuce, seed treatment); type: in vivo; conditions: for Increase/decrease of above-ground part / Increase/decrease of underground part: non-addition group = 100%; for Weight of above-ground part FW / Weight of underground part FW: 25° C., 28 days
Experimental: For lettuce (Green Wave, Takii & Co., Ltd.), seed dressing was carried out by application, at 5% seed weight, of a dilution of hesperidin prepared at a final concentration of 1 to 100 ppm (using water as the solvent). The dressed lettuce seeds were sown on a cell tray filled with seedling culture soil (manufactured by Nihon Hiryo Co., Ltd.; “Naebijin N100”). […]

[8] = test system: lettuce (Green Wave); assay: Example 23: Metal stress Petri dish test (lettuce); type: in vivo; conditions: Metal stress (AlCl3 100 μM), 1 ppm
[9] = test system: Phythophthora infestans; type: in vivo; conditions: 14 days
[10] = test system: lettuce (Green Wave); assay: Example 2: High-temperature stress Petri dish test (lettuce), blending with neohesperidin; conditions: 0.1 ppm
Experimental: For seeds, 2% water agar medium (using water as the solvent), which was prepared such that hesperidin (Fujifilm Wako Pure Chemical Corporation; special-grade reagent) and neohesperidin (Fujifilm Wako Pure Chemical Corporation; special-grade reagent) were contained at the predetermined final concentrations shown in Table 2, was filled into square Petri dishes (“model number: D-210-16”, manufactured by As One Corporation). Before high-temperature treatment, lettuce (Green Wave, Takii & Co., Ltd.) was sown on 2% water agar medium, and lettuce seedlings on day 2 after the sowing were transplanted to the above-described agar medium to which the hesperidin and/or the like was/were added. At the time of the transplantation, the tip of the root was marked. Each Petri dish after the transplantation was placed in an incubator (“model number: FLI-2010A”, manufactured by EYELA) at an angle of 45° with respect to the bottom surface, and high-temperature treatment was carried out at 42° C. for 1.5 hours. Thereafter, culture was similarly performed at 23° C. for 2 days, and then the increase in the root length was evaluated in terms of elongation from the tip of the root of each seedling at the time of the transplantation. In addition, for evaluation of the effect of the mixture of hesperidin and neohesperidin in normal cultivation, culture was similarly performed at 23° C. without performing the high-temperature treatment, followed by evaluation of the increase in the root length. […] The Colby's equation is as follows.
E=(x+y)−(x·y)/100 Colby's equation:
E: Expected root length x: Root length in the case of application of hesperidin alone y: Root length in the case of application of neohesperidin alone For each group, 15 measurement results were obtained (N=15).

[11] = seed treatment (dressing) 1 ppm
[12] = seed treatment (dressing) 10 ppm
[13] = seed treatment (dressing) 100 ppm

For COc1ccc([C@@H]2CC(=O)c3c(O)cc(O[C@@H]4O[C@H](CO[C@@H]5O[C@@H](C)[C@H](O)[C@@H](O)[C@H]5O)[C@@H](O)[C@H](O)[C@H]4O)cc3O2)cc1O [Hesperidin], the “Increase/decrease of above-ground part” value ([1]; 1 ppm) was 114%, the “Increase/decrease of underground part” value ([1]; 1 ppm) was 126% and the “Increase/decrease of above-ground part” value ([1]; 3 ppm) was 111%. For the same compound, the “Increase/decrease of underground part” value ([1]; 3 ppm) was 123%, the “Increase/decrease of above-ground part” value ([1]; 10 ppm) was 104% and the “Increase/decrease of underground part” value ([1]; 10 ppm) was 103%. The “Weight of above-ground part FW” value ([1]; drenching 1 ppm) was 6.5 mg/individual, the “Weight of underground part FW” value ([1]; drenching 1 ppm) was 5.1 mg/individual and the “Weight of above-ground part FW” value ([1]; drenching 3 ppm) was 6.3 mg/individual. For the same compound, the “Weight of underground part FW” value ([1]; drenching 3 ppm) was 5.0 mg/individual, the “Weight of above-ground part FW” value ([1]; drenching 10 ppm) was 5.9 mg/individual and the “Weight of underground part FW” value ([1]; drenching 10 ppm) was 4.2 mg/individual. For the same compound, the “Fresh weight of above-ground part, Increase rate” value ([2]; 100 ppm) was 114.4%, the “Fresh weight of underground part, Increase rate” value ([2]; 100 ppm) was 122.8% and the “Fresh weight of above-ground part, Increase rate” value ([2]; 1000 ppm) was 109.1%. For the same compound, the “Fresh weight of underground part, Increase rate” value ([2]; 1000 ppm) was 93.9%, the “Fresh weight of above-ground part, Average” value ([2]; drenching 100 ppm) was 0.76 g and the “Fresh weight of underground part, Average” value ([2]; drenching 100 ppm) was 0.29 g. The “Fresh weight of above-ground part, Average” value ([2]; drenching 1000 ppm) was 0.72 g, the “Fresh weight of underground part, Average” value ([2]; drenching 1000 ppm) was 0.22 g and the Preventive value ([3]; 10 ppm foliar spraying on cucumber) was 5.0. The Preventive value ([3]; 100 ppm foliar spraying on cucumber) was 50.0, the Preventive value ([3]; 1,000 ppm foliar spraying on cucumber) was 68 and the “Increase/decrease of above-ground part” value ([4]; 1 ppm) was 106%. The “Increase/decrease of underground part” value ([4]; 1 ppm) was 108%, the “Increase/decrease of above-ground part” value ([4]; 10 ppm) was 112% and the “Increase/decrease of underground part” value ([4]; 10 ppm) was 106%. For the same compound, the “Increase/decrease of above-ground part” value ([4]; 100 ppm) was 106%, the “Increase/decrease of underground part” value ([4]; 100 ppm) was 101% and the “Weight of above-ground part FW” value ([4]; seed dressing 1 ppm) was 54.0 mg/individual. For the same compound, the “Weight of underground part FW” value ([4]; seed dressing 1 ppm) was 15.6 mg/individual, the “Weight of above-ground part FW” value ([4]; seed dressing 10 ppm) was 57.2 mg/individual and the “Weight of underground part FW” value ([4]; seed dressing 10 ppm) was 15.3 mg/individual. The “Weight of above-ground part FW” value ([4]; seed dressing 100 ppm) was 53.9 mg/individual, the “Weight of underground part FW” value ([4]; seed dressing 100 ppm) was 14.6 mg/individual and the “optimum concentration of hesperidin to be added for cabbage” value ([4]; seed dressing, growth promotion) was “lower than 100 ppm”. The “Germination rate, Increase rate” value ([5]; 100 ppm) was 127.1%, the “Root length, Increase rate” value ([5]; 100 ppm) was 189.7% and the “Germination rate, Increase rate” value ([5]; 1000 ppm) was 150.3%. The “Root length, Increase rate” value ([5]; 1000 ppm) was 224.6%, the “Root length, Average” value ([5]; 100 ppm) was 43.6 mm and the “Root length, Average” value ([5]; 1000 ppm) was 51.6 mm. For the same compound, the “Germination rate, Average” value ([5]; then soaked at 100 ppm) was 66.2%, the “Germination rate, Average” value ([5]; then soaked at 1000 ppm) was 78.3% and the “Increase/decrease of above-ground part” value ([6]; 1 ppm) was 103%. The “Increase/decrease of underground part” value ([6]; 1 ppm) was 115%, the “Increase/decrease of above-ground part” value ([6]; 3 ppm) was 126% and the “Increase/decrease of underground part” value ([6]; 3 ppm) was 119%. The “Increase/decrease of above-ground part” value ([6]; 100 ppm) was 118%, the “Increase/decrease of underground part” value ([6]; 100 ppm) was 123% and the “Weight of above-ground part FW” value ([6]; drenching treatment 1 ppm) was 13.26 mg/individual. For the same compound, the “Weight of underground part FW” value ([6]; drenching treatment 1 ppm) was 7.99 mg/individual, the “Weight of above-ground part FW” value ([6]; drenching treatment 3 ppm) was 16.17 mg/individual and the “Weight of underground part FW” value ([6]; drenching treatment 3 ppm) was 8.29 mg/individual. For the same compound, the “Weight of above-ground part FW” value ([6]; drenching treatment 100 ppm) was 15.12 mg/individual, the “Weight of underground part FW” value ([6]; drenching treatment 100 ppm) was 8.57 mg/individual and the “Increase/decrease of above-ground part” value ([7]; 1 ppm) was 109%. The “Increase/decrease of underground part” value ([7]; 1 ppm) was 133%, the “Increase/decrease of above-ground part” value ([7]; 10 ppm) was 113% and the “Increase/decrease of underground part” value ([7]; 10 ppm) was 142%. For the same compound, the “Increase/decrease of above-ground part” value ([7]; 100 ppm) was 149%, the “Increase/decrease of underground part” value ([7]; 100 ppm) was 126% and the “Weight of above-ground part FW” value [7, 11] was 27.4 mg/individual. The “Weight of underground part FW” value [7, 11] was 7.6 mg/individual, the “Weight of above-ground part FW” value [7, 12] was 28.3 mg/individual and the “Weight of underground part FW” value [7, 12] was 8.1 mg/individual. The “Weight of above-ground part FW” value [7, 13] was 37.4 mg/individual, the “Weight of underground part FW” value [7, 13] was 7.2 mg/individual and the “Root length, Average” value [8] was 22.87 mm. The “Root length, Increase rate” value ([8]; non-addition group = 100.0) was 137.6%, the Preventive value ([9]; 10 ppm foliar spraying on tomato (Regina)) was 37.4 and the Preventive value ([9]; 30 ppm foliar spraying on tomato (Regina)) was 86.0. The Preventive value ([9]; 100 ppm foliar spraying on tomato (Regina)) was 92 and 92.1, the Root length ([10]; High-temperature treatment (42° C., 1.5 hours)) was 10.9 mm and the Root length ([10]; Normal cultivation) was 19.2 mm.
